Test results taken from ChEMBL document CHEMBL4732067, “Synthesis and evaluation of new compounds bearing 3-(4-aminopiperidin-1-yl)methyl magnolol scaffold as anticancer agents for the treatment of non-small cell lung cancer via targeting autophagy” (Eur J Med Chem, 2021).
pIC50: −log10 of the molar value. Blank lines part the entries; values can stand above or below the compound they belong to.

Experiments:
NCI-H460 [1] = experiment: Antitumor activity against human NCI-H460 cells xenografted in nude BABL/c mouse assessed as tumor growth inhibition at 10 mg/kg, po administered once daily and measured every two days by caliper method relative to control; assay type: functional; conditions: 48 h, read-out: TGI
NCI-H1975 = experiment: Antiproliferative activity against human NCI-H1975 cells assessed as reduction in cell viability after 72 hrs by MTT assay; assay type: functional, cell-based; conditions: NCI-H1975, 72 h
NCI-H460 [2] = experiment: Induction of apoptosis in human NCI-H460 cells assessed as viable cells at 5 uM after 48 hrs by Annexin V-FITC/propidium iodide staining based flow cytometric analysis (reference value: 91.528 %); assay type: functional; conditions: read-out: Activity
NCI-H460 [3] = experiment: Induction of apoptosis in human NCI-H460 cells assessed as viable cells at 2 uM after 48 hrs by Annexin V-FITC/propidium iodide staining based flow cytometric analysis (reference value: 91.528 %); assay type: functional; conditions: read-out: Activity
NCI-H460 [4] = experiment: Induction of cell cycle arrest in human NCI-H460 cells assessed as accumulation at G2/M phase at 10 uM incubated for 24 hrs by propidium iodide staining based flow cytometry (reference value: 16.71 %); assay type: functional
HCC827 = experiment: Antiproliferative activity against human HCC827 cells assessed as reduction in cell viability after 72 hrs by MTT assay; assay type: functional, cell-based; conditions: HCC827, 72 h
NCI-H460 [5] = experiment: Induction of cell cycle arrest in human NCI-H460 cells assessed as accumulation at S phase at 5 uM incubated for 24 hrs by propidium iodide staining based flow cytometry (reference value: 29.32 %); assay type: functional
L929 = experiment: Cytotoxicity against mouse L929 cells; assay type: cell-based
NCI-H441 = experiment: Antiproliferative activity against human NCI-H441 cells […] assessed as reduction in cell viability after 72 hrs by MTT assay; assay type: functional, cell-based; conditions: NCI-H441, 72 h
NCI-H460 [6] = experiment: Induction of cell cycle arrest in human NCI-H460 cells assessed as accumulation at G0/G1 phase at 1 uM incubated for 24 hrs by propidium iodide staining based flow cytometry (reference value: 53.97 %); assay type: functional
NCI-H460 [7] = experiment: Induction of cell cycle arrest in human NCI-H460 cells assessed as accumulation at G0/G1 phase at 5 uM incubated for 24 hrs by propidium iodide staining based flow cytometry (reference value: 53.97 %); assay type: functional
NCI-H460 [8] = experiment: Induction of apoptosis in human NCI-H460 cells assessed as necrotic cells at 10 uM after 48 hrs by Annexin V-FITC/propidium iodide staining based flow cytometric analysis (reference value: 0.498 %); assay type: functional
NCI-H460 [9] = experiment: Induction of cell cycle arrest in human NCI-H460 cells assessed as accumulation at G0/G1 phase at 10 uM incubated for 24 hrs by propidium iodide staining based flow cytometry (reference value: 53.97 %); assay type: functional
NCI-H460 [10] = experiment: Induction of apoptosis in human NCI-H460 cells assessed as late apoptotic cells at 10 uM after 48 hrs by Annexin V-FITC/propidium iodide staining based flow cytometric analysis (reference value: 3.995 %); assay type: functional
NCI-H460 [11] = experiment: Induction of apoptosis in human NCI-H460 cells assessed as early apoptotic cells at 10 uM after 48 hrs by Annexin V-FITC/propidium iodide staining based flow cytometric analysis (reference value: 3.980 %); assay type: functional
NCI-H460 [12] = experiment: Antiproliferative activity against human NCI-H460 cells assessed as reduction in cell viability after 72 hrs by MTT assay; assay type: functional, cell-based; conditions: NCI-H460, 72 h
NCI-H460 [13] = experiment: Induction of cell cycle arrest in human NCI-H460 cells assessed as accumulation at G2/M phase at 1 uM incubated for 24 hrs by propidium iodide staining based flow cytometry (reference value: 16.71 %); assay type: functional
NCI-H460 [14] = experiment: Induction of cell cycle arrest in human NCI-H460 cells assessed as accumulation at G2/M phase at 5 uM incubated for 24 hrs by propidium iodide staining based flow cytometry (reference value: 16.71 %); assay type: functional
NCI-H460 [15] = experiment: Induction of apoptosis in human NCI-H460 cells assessed as viable cells at 10 uM after 48 hrs by Annexin V-FITC/propidium iodide staining based flow cytometric analysis (reference value: 91.528 %); assay type: functional; conditions: read-out: Activity
NCI-H460 [16] = experiment: Induction of apoptosis in human NCI-H460 cells assessed as late apoptotic cells at 2 uM after 48 hrs by Annexin V-FITC/propidium iodide staining based flow cytometric analysis (reference value: 3.995 %); assay type: functional
NCI-H460 [17] = experiment: Induction of cell cycle arrest in human NCI-H460 cells assessed as accumulation at S phase at 10 uM incubated for 24 hrs by propidium iodide staining based flow cytometry (reference value: 29.32 %); assay type: functional
[18] = Antiproliferative activity against human SPCA1 cells expressing wild type EGFR assessed as reduction in cell viability after 72 hrs by MTT assay; assay type: functional, cell-based; conditions: SPCA1, 72 h
NCI-H460 [19] = experiment: Induction of apoptosis in human NCI-H460 cells assessed as late apoptotic cells at 1 uM after 48 hrs by Annexin V-FITC/propidium iodide staining based flow cytometric analysis (reference value: 3.995 %); assay type: functional
[20] = Metabolic stability in human liver microsomes assessed as intrinsic clearance per gram protein; assay type: ADME, Microsome
NCI-H460 [21] = experiment: Induction of apoptosis in human NCI-H460 cells assessed as early apoptotic cells at 2 uM after 48 hrs by Annexin V-FITC/propidium iodide staining based flow cytometric analysis (reference value: 3.980 %); assay type: functional
NCI-H460 [22] = experiment: Induction of apoptosis in human NCI-H460 cells assessed as necrotic cells at 2 uM after 48 hrs by Annexin V-FITC/propidium iodide staining based flow cytometric analysis (reference value: 0.498 %); assay type: functional
[23] = Metabolic stability in human liver microsomes assessed as half life; assay type: ADME, Microsome
NCI-H460 [24] = experiment: Induction of cell cycle arrest in human NCI-H460 cells assessed as accumulation at S phase at 1 uM incubated for 24 hrs by propidium iodide staining based flow cytometry (reference value: 29.32 %); assay type: functional
NCI-H1650 = experiment: Antiproliferative activity against human NCI-H1650 cells expressing EGFR mutant assessed as reduction in cell viability after 72 hrs by MTT assay; assay type: functional, cell-based; conditions: NCI-H1650, 72 h
[25] = Antitumor activity against mouse C26 cells xenografted in BALB/c mouse assessed as tumor growth inhibition at 50 mg/kg, po administered once daily and measured every two days by caliper method relative to control; assay type: functional; conditions: 48 h, read-out: TGI
NCI-H460 [26] = experiment: Induction of apoptosis in human NCI-H460 cells assessed as early apoptotic cells at 5 uM after 48 hrs by Annexin V-FITC/propidium iodide staining based flow cytometric analysis (reference value: 3.980 %); assay type: functional
NCI-H460 [27] = experiment: Antitumor activity against human NCI-H460 cells xenografted in nude BABL/c mouse assessed as tumor growth inhibition at 60 mg/kg, po administered once daily and measured every two days by caliper method relative to control; assay type: functional; conditions: 48 h, read-out: TGI
NCI-H460 [28] = experiment: Induction of apoptosis in human NCI-H460 cells assessed as early apoptotic cells at 1 uM after 48 hrs by Annexin V-FITC/propidium iodide staining based flow cytometric analysis (reference value: 3.980 %); assay type: functional
A549 = experiment: Antiproliferative activity against human A549 cells expressing wild type EGFR assessed as reduction in cell viability after 72 hrs by MTT assay; assay type: functional, cell-based; conditions: A549, 72 h
NCI-H460 [29] = experiment: Induction of apoptosis in human NCI-H460 cells assessed as viable cells at 1 uM after 48 hrs by Annexin V-FITC/propidium iodide staining based flow cytometric analysis (reference value: 91.528 %); assay type: functional; conditions: read-out: Activity
NCI-H460 [30] = experiment: Induction of apoptosis in human NCI-H460 cells assessed as necrotic cells at 5 uM after 48 hrs by Annexin V-FITC/propidium iodide staining based flow cytometric analysis (reference value: 0.498 %); assay type: functional
NCI-H460 [31] = experiment: Induction of apoptosis in human NCI-H460 cells assessed as late apoptotic cells at 5 uM after 48 hrs by Annexin V-FITC/propidium iodide staining based flow cytometric analysis (reference value: 3.995 %); assay type: functional
NCI-H460 [32] = experiment: Induction of apoptosis in human NCI-H460 cells assessed as necrotic cells at 1 uM after 48 hrs by Annexin V-FITC/propidium iodide staining based flow cytometric analysis (reference value: 0.498 %); assay type: functional

Compound: CCN(CC)CCCC(C)Nc1ccnc2cc(Cl)ccc12 (stereo not drawn) [CHLOROQUINE PHOSPHATE]
inhibition in vivo at 10 mg/kg (NCI-H460 [1]): 8.67%

pIC50 (NCI-H1975): 5.06
pIC50 (HCC827): 4.97
pIC50 (NCI-H441): 5.15
pIC50 (NCI-H460 [12]): 5.03
CLint [20]: 11 mL/min/g
half-life [23]: 2.1 h
pIC50 (NCI-H1650): 5.19
pIC50 (A549): 5.08
Compound: C=CCc1ccc(O)c(-c2cc(CC=C)cc(CN3CCC(N)CC3)c2O)c1
viability at 5 µM (NCI-H460 [2]): 86.9%
viability at 2 µM (NCI-H460 [3]): 87.6%
Activity (NCI-H460 [4]): 15.16%
Activity (NCI-H460 [5]): 22.74%
pIC50 (L929): 6.08
Activity (NCI-H460 [6]): 55%
Activity (NCI-H460 [7]): 58.76%
Activity (NCI-H460 [8]): 0.173%
Activity (NCI-H460 [9]): 65.66%
Activity (NCI-H460 [10]): 7.246%
Activity (NCI-H460 [11]): 19.124%
Activity (NCI-H460 [13]): 22.68%
Activity (NCI-H460 [14]): 18.49%
viability at 10 µM (NCI-H460 [15]): 73.4%
Activity (NCI-H460 [16]): 5.012%
Activity (NCI-H460 [17]): 19.19%
pIC50 [18]: 5.02
Activity (NCI-H460 [19]): 4.207%
Activity (NCI-H460 [21]): 6.067%
Activity (NCI-H460 [22]): 1.301%
Activity (NCI-H460 [24]): 22.32%
inhibition in vivo at 50 mg/kg [25]: 45.5%
Activity (NCI-H460 [26]): 6.82%
inhibition in vivo at 60 mg/kg (NCI-H460 [27]): 45.2%
Activity (NCI-H460 [28]): 6.017%
viability at 1 µM (NCI-H460 [29]): 88.8%
Activity (NCI-H460 [30]): 0.51%
Activity (NCI-H460 [31]): 5.72%
Activity (NCI-H460 [32]): 0.931%
